In patent publication US8445676B2, “Pyrrolotriazine kinase inhibitors” (Bristol-Myers Squibb Company, priority 2008, dated 2013):

Target: JAK2 (Homo sapiens, UniProt O60674)
Test: JAK2 Tyrosine Kinase Assay
Type: biochemical
Conditions: list of named compounds; read-out: IC50 in the JAK2 assay
Procedure: JAK2 Tyrosine Kinase Assay
The assays were performed in V-bottom 384-well plates. […] The reaction was initiated by the combination of JAK2 with substrates and test compounds. The reaction was incubated at room temperature for 60 min. and terminated by adding 45 μl of 35 mM EDTA to each sample. The reaction mixture was analyzed on the Caliper LabChip 3000 by electrophoretic separation of the fluorescent substrate and phosphorylated product. […] Compounds were dissolved at 10 mM in dimethylsulfoxide (DMSO) and evaluated at eleven concentrations, each in duplicate. IC50 values were derived by non-linear regression analysis

Chain of JAK2 (O60674 whole entry): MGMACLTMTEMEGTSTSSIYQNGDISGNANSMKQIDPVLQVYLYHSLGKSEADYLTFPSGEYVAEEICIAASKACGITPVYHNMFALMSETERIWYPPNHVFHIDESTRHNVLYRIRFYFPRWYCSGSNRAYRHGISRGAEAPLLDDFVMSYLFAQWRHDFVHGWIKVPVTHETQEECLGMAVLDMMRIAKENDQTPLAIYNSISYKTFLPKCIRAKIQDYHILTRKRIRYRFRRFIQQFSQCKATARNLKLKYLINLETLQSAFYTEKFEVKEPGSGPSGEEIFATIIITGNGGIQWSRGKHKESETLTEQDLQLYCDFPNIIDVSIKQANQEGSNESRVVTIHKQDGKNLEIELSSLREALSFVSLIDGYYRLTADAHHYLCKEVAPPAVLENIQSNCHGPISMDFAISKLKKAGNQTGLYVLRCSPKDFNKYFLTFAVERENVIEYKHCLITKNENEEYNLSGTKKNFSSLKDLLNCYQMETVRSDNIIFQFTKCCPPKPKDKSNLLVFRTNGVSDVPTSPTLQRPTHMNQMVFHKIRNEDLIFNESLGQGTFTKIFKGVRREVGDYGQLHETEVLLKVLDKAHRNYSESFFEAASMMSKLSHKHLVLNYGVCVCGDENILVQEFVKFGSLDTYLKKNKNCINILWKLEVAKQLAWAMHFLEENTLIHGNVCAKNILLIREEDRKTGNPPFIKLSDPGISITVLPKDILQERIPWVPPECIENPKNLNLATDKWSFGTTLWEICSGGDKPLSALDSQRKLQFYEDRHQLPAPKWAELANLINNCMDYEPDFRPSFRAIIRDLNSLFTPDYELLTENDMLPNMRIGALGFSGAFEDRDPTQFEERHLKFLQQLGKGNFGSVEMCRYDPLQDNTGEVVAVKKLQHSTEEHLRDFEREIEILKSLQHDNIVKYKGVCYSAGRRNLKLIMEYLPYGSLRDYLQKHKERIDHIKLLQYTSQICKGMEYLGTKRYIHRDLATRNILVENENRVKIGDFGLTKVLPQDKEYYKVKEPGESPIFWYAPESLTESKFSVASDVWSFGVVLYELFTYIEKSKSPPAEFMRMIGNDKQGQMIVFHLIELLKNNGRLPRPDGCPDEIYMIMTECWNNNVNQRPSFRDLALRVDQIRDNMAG

IC50 [nM] | SMILES
≤ 5 | Cc1cc(Nc2nc(N3CCN(C(=O)C4(c5ccccc5)CC4)CC3)nn3cccc23)n[nH]1 [N-(5-methyl-1H-pyrazol-3-yl)-2-(4-((1-phenylcyclopropyl)carbonyl)-1-piperazinyl)pyrrolo[2,1-f][1,2,4]triazin-4-amine]
≤ 5 | Cc1cc(Nc2nc(N3CCN(C(=O)c4ccccc4-c4c(C)n[nH]c4C)CC3)nn3cccc23)n[nH]1 [2-(4-(2-(3,5-dimethyl-1H-pyrazol-4-yl)benzoyl)-1-piperazinyl)-N-(5-methyl-1H-pyrazol-3-yl)pyrrolo[2,1-f][1,2,4]triazin-4-amine]
≤ 5 | Cc1cc(Nc2nc(N3CCN(C(=O)Cc4cccc(Cl)c4)CC3)nn3cccc23)n[nH]1 [2-(4-((3-chlorophenyl)acetyl)-1-piperazinyl)-N-(5-methyl-1H-pyrazol-3-yl)pyrrolo[2,1-f][1,2,4]triazin-4-amine]
≤ 5 | Cc1cc(Nc2nc(N3CCN(C(=O)Cc4ccc(Cl)cc4F)CC3)nn3cccc23)n[nH]1 [2-(4-((4-chloro-2-fluorophenyl)acetyl)-1-piperazinyl)-N-(5-methyl-1H-pyrazol-3-yl)pyrrolo[2,1-f][1,2,4]triazin-4-amine]
≤ 5 | Cc1cc(Nc2nc(N3CCN(C(=O)C4CC(=O)c5ccccc54)CC3)nn3cccc23)n[nH]1 (centres unmarked) [3-((4-(4-((5-methyl-1H-pyrazol-3-yl)amino)pyrrolo[2,1-f][1,2,4]triazin-2-yl)-1-piperazinyl)carbonyl)-1-indanone]
≤ 5 | Cc1cc(Nc2nc(N3CCN(C(=O)C4(C)CC4)CC3)nn3cccc23)n[nH]1 [2-(4-((1-methylcyclopropyl)carbonyl)-1-piperazinyl)-N-(5-methyl-1H-pyrazol-3-yl)pyrrolo[2,1-f][1,2,4]triazin-4-amine]
≤ 5 | Cc1cc(Nc2nc(N3CCN(C(=O)c4ccccc4NC(=O)OC(C)(C)C)CC3)nn3cccc23)n[nH]1 [tert-butyl (2-((4-(4-((5-methyl-1H-pyrazol-3-yl)amino)pyrrolo[2,1-f][1,2,4]triazin-2-yl)-1-piperazinyl)carbonyl)phenyl)carbamate]
≤ 5 | Cc1cc(Nc2nc(N3CCN(C(=O)c4ccccc4OC(F)(F)F)CC3)nn3cccc23)n[nH]1 [N-(5-methyl-1H-pyrazol-3-yl)-2-(4-(2-(trifluoromethoxy)benzoyl)-1-piperazinyl)pyrrolo[2,1-f][1,2,4]triazin-4-amine]
≤ 5 | Cc1cc(Nc2nc(N3CCN(C(=O)c4cccnc4C)CC3)nn3cccc23)n[nH]1 [N-(5-methyl-1H-pyrazol-3-yl)-2-(4-((2-methyl-3-pyridinyl)carbonyl)-1-piperazinyl)pyrrolo[2,1-f][1,2,4]triazin-4-amine]
≤ 5 | COc1cccc(F)c1C(=O)N1CCN(c2nc(Nc3cc(C)[nH]n3)c3cccn3n2)CC1 [2-(4-(2-fluoro-6-methoxybenzoyl)-1-piperazinyl)-N-(5-methyl-1H-pyrazol-3-yl)pyrrolo[2,1-f][1,2,4]triazin-4-amine]
≤ 5 | Cc1cc(Nc2nc(N3CCN(C(=O)C4(c5c(F)cccc5Cl)CCCCC4)CC3)nn3cccc23)n[nH]1 [2-(4-((1-(2-chloro-6-fluorophenyl)cyclohexyl)carbonyl)-1-piperazinyl)-N-(5-methyl-1H-pyrazol-3-yl)pyrrolo[2,1-f][1,2,4]triazin-4-amine]
≤ 5 | Cc1cc(Nc2nc(N3CCN(C(=O)c4cccnc4Cl)CC3)nn3cccc23)n[nH]1 [2-(4-((2-chloro-3-pyridinyl)carbonyl)-1-piperazinyl)-N-(5-methyl-1H-pyrazol-3-yl)pyrrolo[2,1-f][1,2,4]triazin-4-amine]
≤ 5 | Cc1cc(Nc2nc(N3CCN(C(=O)[C@@H](NC(=O)OC(C)(C)C)c4ccc(F)cc4)CC3)nn3cccc23)n[nH]1 [tert-butyl((1S)-1-(4-fluorophenyl)-2-(4-(4-((5-methyl-1H-pyrazol-3-yl)amino)pyrrolo[2,1-f][1,2,4]triazin-2-yl)-1-piperazinyl)-2-oxoethyl)carbamate]
≤ 5 | Cc1cc(Nc2nc(N3CCN(C(=O)Cc4ccccc4Br)CC3)nn3cccc23)n[nH]1 [2-(4-((2-bromophenyl)acetyl)-1-piperazinyl)-N-(5-methyl-1H-pyrazol-3-yl)pyrrolo[2,1-f][1,2,4]triazin-4-amine]
≤ 5 | Cc1cc(Nc2nc(N3CCN(C(=O)c4ccc(OC(F)(F)F)cc4)CC3)nn3cccc23)n[nH]1 [N-(5-methyl-1H-pyrazol-3-yl)-2-(4-(4-(trifluoromethoxy)benzoyl)-1-piperazinyl)pyrrolo[2,1-f][1,2,4]triazin-4-amine]
≤ 5 | Cc1cc(Nc2nc(N3CCN(C(=O)[C@H](O)c4ccccc4)CC3)nn3cccc23)n[nH]1 [(1R)-2-(4-(4-((5-methyl-1H-pyrazol-3-yl)amino)pyrrolo[2,1-f][1,2,4]triazin-2-yl)-1-piperazinyl)-2-oxo-1-phenylethanol]
≤ 5 | Cc1cc(Nc2nc(N3CCN(C(=O)c4cccc(Cl)c4)CC3)nn3cccc23)n[nH]1 [2-(4-(3-chlorobenzoyl)-1-piperazinyl)-N-(5-methyl-1H-pyrazol-3-yl)pyrrolo[2,1-f][1,2,4]triazin-4-amine]
≤ 5 | Cc1cc(Nc2nc(N3CCN(C(=O)c4cc(C)oc4C)CC3)nn3cccc23)n[nH]1 [2-(4-(2,5-dimethyl-3-furoyl)-1-piperazinyl)-N-(5-methyl-1H-pyrazol-3-yl)pyrrolo[2,1-f][1,2,4]triazin-4-amine]
≤ 5 | CC(=O)Nc1ccccc1C(=O)N1CCN(c2nc(Nc3cc(C)[nH]n3)c3cccn3n2)CC1 [N-(2-((4-(4-((5-methyl-1H-pyrazol-3-yl)amino)pyrrolo[2,1-f][1,2,4]triazin-2-yl)-1-piperazinyl)carbonyl)phenyl)acetamide]
≤ 5 | Cc1cc(Nc2nc(N3CCN(C(=O)c4cc[nH]n4)CC3)nn3cccc23)n[nH]1 [N-(5-methyl-1H-pyrazol-3-yl)-2-(4-(1H-pyrazol-3-ylcarbonyl)-1-piperazinyl)pyrrolo[2,1-f][1,2,4]triazin-4-amine]
≤ 5 | Cc1cc(Nc2nc(N3CCN(C(=O)C4(c5ccccc5)CCC4)CC3)nn3cccc23)n[nH]1 [N-(5-methyl-1H-pyrazol-3-yl)-2-(4-((1-phenylcyclobutyl)carbonyl)-1-piperazinyl)pyrrolo[2,1-f][1,2,4]triazin-4-amine]
≤ 5 | Cc1cc(Nc2nc(N3CCN(C(=O)Cc4cccc(C(F)(F)F)c4)CC3)nn3cccc23)n[nH]1 [N-(5-methyl-1H-pyrazol-3-yl)-2-(4-((3-(trifluoromethyl)phenyl)acetyl)-1-piperazinyl)pyrrolo[2,1-f][1,2,4]triazin-4-amine]
≤ 5 | Cc1cccc(CC(=O)N2CCN(c3nc(Nc4cc(C)[nH]n4)c4cccn4n3)CC2)c1 [2-(4-((3-methylphenyl)acetyl)-1-piperazinyl)-N-(5-methyl-1H-pyrazol-3-yl)pyrrolo[2,1-f][1,2,4]triazin-4-amine]
≤ 5 | Cc1csc(C(=O)N2CCN(c3nc(Nc4cc(C)[nH]n4)c4cccn4n3)CC2)c1 [N-(5-methyl-1H-pyrazol-3-yl)-2-(4-((4-methyl-2-thienyl)carbonyl)-1-piperazinyl)pyrrolo[2,1-f][1,2,4]triazin-4-amine]
≤ 5 | Cc1cc(Nc2nc(N3CCN(C(=O)C(NC(=O)OC(C)(C)C)c4ccc(Cl)cc4)CC3)nn3cccc23)n[nH]1 (centres unmarked) [tert-butyl (1-(4-chlorophenyl)-2-(4-(4-((5-methyl-1H-pyrazol-3-yl)amino)pyrrolo[2,1-f][1,2,4]triazin-2-yl)-1-piperazinyl)-2-oxoethyl)carbamate]
≤ 5 | Cc1cc(Nc2nc(N3CCN(C(=O)C(C)(C)c4ccc(Cl)cc4)CC3)nn3cccc23)n[nH]1 [2-(4-(2-(4-chlorophenyl)-2-methylpropanoyl)-1-piperazinyl)-N-(5-methyl-1H-pyrazol-3-yl)pyrrolo[2,1-f][1,2,4]triazin-4-amine]
